The structures appear in SMILES notation. Where only a bound is given, the exact number is not on record here.

The term IC50 denotes the point on the concentration scale where inhibition reaches its midpoint.

The target of this assay is USP19 (Homo sapiens (Human), UniProt O94966). The assay is described as follows: USP19 activity assay (fluorescence polarisation, Ubiquitin-Lys-TAMRA substrate). Conditions: full-length USP19 2.5 nM, 30 min pre-incubation, Ub substrate 500 nM; average of at least two duplicate experiments. It is filed as biochemical. For orientation: Fluorescence polarisation rises when a labelled molecule tumbles more slowly, as on binding a larger partner.
USP19, sequence (O94966 whole entry): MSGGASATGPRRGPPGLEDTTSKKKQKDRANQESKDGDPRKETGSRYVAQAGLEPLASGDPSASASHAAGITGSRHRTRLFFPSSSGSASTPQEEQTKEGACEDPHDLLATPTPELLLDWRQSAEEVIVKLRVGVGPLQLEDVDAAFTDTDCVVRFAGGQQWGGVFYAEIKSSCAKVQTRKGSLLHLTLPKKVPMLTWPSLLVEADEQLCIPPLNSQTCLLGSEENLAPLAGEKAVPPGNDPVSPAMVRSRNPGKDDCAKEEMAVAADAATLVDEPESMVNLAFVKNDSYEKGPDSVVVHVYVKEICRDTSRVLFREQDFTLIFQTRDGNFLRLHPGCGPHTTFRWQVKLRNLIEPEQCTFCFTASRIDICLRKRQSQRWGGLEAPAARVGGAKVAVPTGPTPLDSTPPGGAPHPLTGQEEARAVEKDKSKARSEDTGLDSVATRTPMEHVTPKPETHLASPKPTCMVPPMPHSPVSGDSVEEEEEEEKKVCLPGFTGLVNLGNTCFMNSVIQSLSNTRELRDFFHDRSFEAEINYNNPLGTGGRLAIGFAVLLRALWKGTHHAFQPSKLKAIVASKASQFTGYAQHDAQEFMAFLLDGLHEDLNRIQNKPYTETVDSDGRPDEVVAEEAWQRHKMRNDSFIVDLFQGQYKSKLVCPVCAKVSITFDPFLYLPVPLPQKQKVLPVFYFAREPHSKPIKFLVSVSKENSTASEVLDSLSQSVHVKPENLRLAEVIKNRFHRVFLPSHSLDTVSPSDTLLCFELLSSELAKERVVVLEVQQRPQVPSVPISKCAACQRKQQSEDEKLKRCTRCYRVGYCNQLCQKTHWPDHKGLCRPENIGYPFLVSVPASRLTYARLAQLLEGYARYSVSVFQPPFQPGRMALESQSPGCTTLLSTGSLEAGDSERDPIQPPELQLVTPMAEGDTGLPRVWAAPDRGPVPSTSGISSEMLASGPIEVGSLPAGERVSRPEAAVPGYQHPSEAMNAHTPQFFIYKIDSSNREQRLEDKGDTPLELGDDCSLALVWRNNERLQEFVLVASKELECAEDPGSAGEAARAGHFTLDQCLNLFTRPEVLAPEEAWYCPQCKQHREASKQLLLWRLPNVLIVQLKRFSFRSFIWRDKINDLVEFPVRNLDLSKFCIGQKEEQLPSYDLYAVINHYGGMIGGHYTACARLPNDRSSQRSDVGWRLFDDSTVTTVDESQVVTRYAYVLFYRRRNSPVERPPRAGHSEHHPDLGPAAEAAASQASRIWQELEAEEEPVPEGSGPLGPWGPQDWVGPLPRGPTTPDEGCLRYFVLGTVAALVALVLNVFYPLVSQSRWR
Regarding `CC(C)N(C)C(=O)c1cn(CC2(O)CCN(C(=O)C3(C)CCc4ccccc4C3)CC2)c(=O)cc1-c1ccccc1F` (racemic) [Example 14, (R,S)-4-(2-Fluorophenyl)-1-((4-hydroxy-1-(2-methyl-1,2,3,4-tetrahydronaphthalene-2-carbonyl)piperidin-4-yl)methyl)-N-isopropyl-N-methyl-6-oxo-1,6-dihydropyridine-3-carboxamide], the IC50 lay within 0.5 to 5 µM.
Then `C[C@H](CC1CCC1)C(=O)N1CC[C@@](O)(Cn2cc(C(=O)N(C)C)c(-c3ccccc3F)cc2=O)C2(CCCC2)C1` [Example 222, 1-(((S)-7-((R)-3-Cyclobutyl-2-methylpropanoyl)-10-hydroxy-7-azaspiro[4.5]decan-10-yl)methyl)-4-(2-fluorophenyl)-N,N-dimethyl-6-oxo-1,6-dihydropyridine-3-carboxamide], with under 0.5 µM; and `COc1ccccc1-c1cc(=O)n(CC2(O)CCN(C(=O)C[C@@H](C)c3ccccc3)CC2)cc1C(=O)N(C)C(C)C` [Example 89, (R)-1-((4-Hydroxy-1-(3-phenylbutanoyl)piperidin-4-yl)methyl)-N-isopropyl-4-(2-methoxyphenyl)-N-methyl-6-oxo-1,6-dihydropyridine-3-carboxamide], with 0.5 to 5 µM; and `C[C@H](CC(=O)N1CCC(O)(Cn2ncc(-c3ccccc3)cc2=O)CC1)c1ccccc1` [Example 37, (R)-2-((4-Hydroxy-1-(3-phenylbutanoyl)piperidin-4-yl)methyl)-5-phenylpyridazin-3(2H)-one], with 50 to 250 µM.
Then `C[C@H](CC1CCCCC1)C(=O)N1CC[C@@](O)(Cn2cc(C(=O)N3CCNCC3)c(-c3ccccc3)cc2=O)C2(CCCC2)C1` [Example 212, 1-(((S)-7-((R)-3-Cyclohexyl-2-methylpropanoyl)-10-hydroxy-7-azaspiro[4.5]decan-10-yl)methyl)-4-phenyl-5-(piperazine-1-carbonyl)pyridin-2(1H)-one], with under 0.5 µM; and `CC(C)N(C)C(=O)c1cn(CC2(O)CCN(C(=O)[C@H](C)CC3CCCCC3)CC2(C)C)c(=O)cc1-c1ccccc1` (mixture of isomers) [Example 73, 1-(((R)-1-((R)-3-Cyclohexyl-2-methylpropanoyl)-4-hydroxy-3,3-dimethylpiperidin-4-yl)methyl)-N-isopropyl-N-methyl-6-oxo-4-phenyl-1,6-dihydropyridine-3-carboxamide and 1-(((S)-1-((R)-3-Cyclohexyl-2-methylpropanoyl)-4-hydroxy-3,3-dimethylpiperidin-4-yl)methyl)-N-isopropyl-N-methyl-6-oxo-4-phenyl-1,6-dihydropyridine-3-carboxamide], with under 0.5 µM; and `C[C@H](CC(=O)N1CCC(O)(Cn2cc(C(=O)N3CCC4(CC3)OCCO4)c(-c3ccccc3)cc2=O)CC1)c1ccccc1` [Example 64, (R)-1-((4-Hydroxy-1-(3-phenylbutanoyl)piperidin-4-yl)methyl)-4-phenyl-5-(1,4-dioxa-8-azaspiro[4.5]decane-8-carbonyl)pyridin-2(1H)-one], with 5 to 50 µM.
The figure for `C[C@H](CC(=O)N1CCC(O)(Cn2cc(C(=O)N(C)c3ccccc3)c(-c3ccccc3)cc2=O)CC1)c1ccccc1` [Example 107, (R)-1-((4-Hydroxy-1-(3-phenylbutanoyl)piperidin-4-yl)methyl)-N-methyl-6-oxo-N,4-diphenyl-1,6-dihydropyridine-3-carboxamide] is 5 to 50 µM; for `C[C@H](CC(=O)N1CCC(O)(Cn2cc(C(=O)N(C)C)c(-c3ccccc3)cc2=O)CC1)c1ccccc1` [Example 95, (R)-1-((4-Hydroxy-1-(3-phenylbutanoyl)piperidin-4-yl)methyl)-N,N-dimethyl-6-oxo-4-phenyl-1,6-dihydropyridine-3-carboxamide] it is 5 to 50 µM; for `O=C(CCc1ccccc1)N1CCC(O)(Cn2cnc(-c3ccccc3F)cc2=O)CC1` [Example 2, 6-(2-Fluorophenyl)-3-((4-hydroxy-1-(3-phenylpropanoyl)piperidin-4-yl)methyl)pyrimidin-4(3H)-one] it is 50 to 250 µM.
On to `C[C@H](CC(=O)N1CCC(O)(Cn2cnc(Oc3ccc(F)cc3)cc2=O)CC1)c1ccccc1` [Example 54], for which the IC50 is 50 to 250 µM.
The figure for `C[C@H](CC(=O)N1CCC(O)(Cn2cc(C(=O)N3CCCC3)c(-c3ccccc3)cc2=O)CC1)c1ccccc1` [Example 63, (R)-1-((4-Hydroxy-1-(3-phenylbutanoyl)piperidin-4-yl)methyl)-4-phenyl-5-(pyrrolidine-1-carbonyl)pyridin-2(1H)-one] is 0.5 to 5 µM; for `CC(C)N(C)C(=O)c1cn(CC2(O)CCN(C(=O)C3(C)CCCC3)CC2)c(=O)cc1-c1ccccc1F` [Example 23, 4-(2-Fluorophenyl)-1-((4-hydroxy-1-(1-methylcyclopentane-1-carbonyl)piperidin-4-yl)methyl)-N-isopropyl-N-methyl-6-oxo-1,6-dihydropyridine-3-carboxamide] it is 5 to 50 µM; for `CC1(C(=O)N2CCC(O)(Cn3cnc(-c4ccccc4F)cc3=O)C(C)(C)C2)CCCCC1` (racemic) [Example 81, (R,S)-6-(2-Fluorophenyl)-3-((4-hydroxy-3,3-dimethyl-1-(1-methylcyclohexane-1-carbonyl)piperidin-4-yl)methyl)pyrimidin-4(3H)-one] it is 50 to 250 µM.
The figure for `CN(C)C(=O)c1cn(CC2(O)CCN(C(=O)C(O)Cc3ccccc3)CC23CCCC3)c(=O)cc1-c1ccccc1` (stereo not drawn) [Example 203, 1-((10-Hydroxy-7-(2-hydroxy-3-phenylpropanoyl)-7-azaspiro[4.5]decan-10-yl)methyl)-N,N-dimethyl-6-oxo-4-phenyl-1,6-dihydropyridine-3-carboxamide] is 0.5 to 5 µM; for `CC(CC(=O)N1CCC(O)(Cn2cnc(-c3ccccc3F)cc2=O)C(C)(C)C1)C1CCCCC1` (stereo not drawn) [Example 76, 3-((1-(3-Cyclohexylbutanoyl)-4-hydroxy-3,3-dimethylpiperidin-4-yl)methyl)-6-(2-fluorophenyl)pyrimidin-4(3H)-one] it is 0.5 to 5 µM; for `C[C@H](CC(=O)N1CCC(O)(Cn2cnc(C3=CCCCC3)cc2=O)CC1)c1ccccc1` [Example 28, (R)-6-(Cyclohex-1-en-1-yl)-3-((4-hydroxy-1-(3-phenylbutanoyl)piperidin-4-yl)methyl)pyrimidin-4(3H)-one] it is 50 to 250 µM.
Then `C[C@H](CC(=O)N1CCC(O)(Cn2cc(-c3ccccn3)c(-c3ccccc3)cc2=O)CC1)c1ccccc1` [Example 91, (R)-1′-((4-Hydroxy-1-(3-phenylbutanoyl)piperidin-4-yl)methyl)-4′-phenyl-[2,3′-bipyridin]-6′(1′H)-one], with 0.5 to 5 µM.
As to `CN(C)C(=O)c1cn(CC2(O)CCN(C(=O)c3n[nH]c4ccccc34)CC23CCCC3)c(=O)cc1-c1ccccc1` (stereo not drawn) [Example 188, 1-((10-Hydroxy-7-(1H-indazole-3-carbonyl)-7-azaspiro[4.5]decan-10-yl)methyl)-N,N-dimethyl-6-oxo-4-phenyl-1,6-dihydropyridine-3-carboxamide], the IC50 was 50 to 250 µM.
The figure for `CN(C)C(=O)c1cn(CC2(O)CCN(C(=O)c3cc[nH]n3)CC23CCCC3)c(=O)cc1-c1ccccc1` (stereo not drawn) [Example 187, 1-((10-Hydroxy-7-(1H-pyrazole-3-carbonyl)-7-azaspiro[4.5]decan-10-yl)methyl)-N,N-dimethyl-6-oxo-4-phenyl-1,6-dihydropyridine-3-carboxamide] is 50 to 250 µM.
Then `C[C@H](CC1CCCCC1)C(=O)N1CCC(O)(Cn2cc(C(=O)N(C)C)c(-c3ccccc3CO)cc2=O)C2(CCCC2)C1` (stereo partly drawn) [Example 151, 1-((7-((R)-3-Cyclohexyl-2-methylpropanoyl)-10-hydroxy-7-azaspiro[4.5]decan-10-yl)methyl)-4-(2-(hydroxymethyl)phenyl)-N,N-dimethyl-6-oxo-1,6-dihydropyridine-3-carboxamide], with 5 to 50 µM; and `CC(C)N(C)C(=O)c1cn(CC2(O)CCN(C(=O)C3(c4cccs4)CC3)CC2)c(=O)cc1-c1ccccc1` [Example 72, 1-((4-Hydroxy-1-(1-(thiophen-2-yl)cyclopropane-1-carbonyl)piperidin-4-yl)methyl)-N-isopropyl-N-methyl-6-oxo-4-phenyl-1,6-dihydropyridine-3-carboxamide], with 50 to 250 µM; and `C[C@H](CC1CCCCC1)C(=O)N1CC[C@@](O)(Cn2cc(C(=O)N3CCNCC3)c(-c3ccccc3F)cc2=O)C2(CCCC2)C1` [Example 227, 1-(((S)-7-((R)-3-Cyclohexyl-2-methylpropanoyl)-10-hydroxy-7-azaspiro[4.5]decan-10-yl)methyl)-4-(2-fluorophenyl)-5-(piperazine-1-carbonyl)pyridin-2(1H)-one], with under 0.5 µM.
Then `CC(CC(=O)N1CCC(O)(Cn2cc(C(=O)N(C)C)c(-c3ccccc3)cc2=O)C2(CCCC2)C1)C(F)(F)F` (stereo not drawn) [Example 171, 1-((10-Hydroxy-7-(4,4,4-trifluoro-3-methylbutanoyl)-7-azaspiro[4.5]decan-10-yl)methyl)-N,N-dimethyl-6-oxo-4-phenyl-1,6-dihydropyridine-3-carboxamide], with 50 to 250 µM.
Turning to `O=C(c1cn(C[C@]2(O)CCN(C(=O)C(CC(F)(F)F)CC(F)(F)F)CC23CCCC3)c(=O)cc1-c1ccccc1)N1CCNCC1` [Example 219, (S)-1-((10-Hydroxy-7-(4,4,4-trifluoro-2-(2,2,2-trifluoroethyl)butanoyl)-7-azaspiro[4.5]decan-10-yl)methyl)-4-phenyl-5-(piperazine-1-carbonyl)pyridin-2(1H)-one], the half-inhibitory concentration (IC50) was in the range of 0.5 to 5 µM.
`C[C@H](CC1CCCCC1)C(=O)N1CCC(O)(Cn2cc(C(=O)N(C)C)c(N(C)C)cc2=O)C2(CCCC2)C1` (stereo partly drawn) [Example 145, 1-((7-((R)-3-Cyclohexyl-2-methylpropanoyl)-10-hydroxy-7-azaspiro[4.5]decan-10-yl)methyl)-4-(dimethylamino)-N,N-dimethyl-6-oxo-1,6-dihydropyridine-3-carboxamide]: the IC50 is under 0.5 µM.
The figure for `C[C@H](CC1CCCCC1)C(=O)N1CCC(O)(Cn2cc(-c3cccc(CN)c3)c(-c3ccccc3F)cc2=O)CC1` [Example 52, (R)-5-(3-(Aminomethyl)phenyl)-1-((1-(3-cyclohexyl-2-methylpropanoyl)-4-hydroxypiperidin-4-yl)methyl)-4-(2-fluorophenyl)pyridin-2(1H)-one] is 0.5 to 5 µM.

Values taken from US11053213B2, “Pharmaceutical compounds” (ALMAC DISCOVERY LIMITED, priority 2016, dated 2021).
